Data from paper PMC12797170, “Potent Competitive Inhibitors of Ecto-5′-nucleotidase (CD73) based on 6‑(Het)aryl-7-deazapurine Ribonucleoside 5′‑O‑Bisphosphonates” (ACS Pharmacology & Translational Science, 2025).
Values after ≈ are worked out from the molar mass of the structure shown.

Key:
[1] = Plasma protein binding, mouse plasma; assay type: in vitro ADME; conditions: mouse, plasma, mouse plasma protein binding; read-out: PPB (m) (converted)
Description: (§1) Plasma protein binding of the investigated compounds was determined using equilibrium dialysis in single-use Rapid Equilibrium Dialysis devices with an 8 kDa molecular weight cutoff (Thermo Fisher Scientific), following the manufacturer’s protocol. In brief, 50 μL of undiluted human plasma (Biowest), spiked with the test compound at a final concentration of 100 μM, was added to the sample chamber, while 300 μL of phosphate-buffered saline (PBS) was placed in the buffer chamber. Devices were incubated for 4 h at 37 °C with gentle shaking.
(§2) After dialysis, 7.5 μL aliquots from both the plasma and buffer chambers were transferred directly into wells of a 384-well plate. To equalize the matrices for downstream processing, 7.5 μL of PBS was added to each plasma aliquot, and 7.5 μL of plasma was added to each buffer aliquot. Proteins were precipitated by adding four volumes of ice-cold methanol to each well, followed by thorough mixing and incubation at – 20 °C for 30 min. Plates were then stored overnight at 8 °C. Prior to analysis, the plate was centrifuged at 2,000 × g for 20 min at 8 °C. […] The fraction of unbound compound was calculated using the following equations: %Free=c(bufferchamber)/c(plasmachamber)*100% %Bound=100%−%Free

[2] = Plasma protein binding, equilibrium dialysis, human plasma; assay type: in vitro ADME; conditions: undiluted plasma, human plasma protein binding, read-out: PPB (hu) (converted)
Description: as §1, §2

in vitro [3] = conditions: mouse, plasma
in vitro [4] = conditions: human, plasma
[5] = Kinetic solubility in PBS; assay type: physicochemical; conditions: phosphate-buffered saline, pH 7.4, aqueous buffer, kinetic from dmso stock
Description: Test compounds were prepared as 10 mM stock solutions in DMSO and diluted in phosphate-buffered saline (PBS, pH 7.4) to a 100 μM solution, which was then aliquoted in duplicate. The duplicate samples were incubated in Multiscreen PCF Filter Plates (Merck Millipore) with sealed bottom at room temperature on a shaker for 2 h to allow equilibration. Following incubation, the samples were centrifuged into nonsterile, flat-bottom 96-well plates at 2,200 RCF for 12 min. Supernatants were then diluted 1:99 in a solution of 50% acetonitrile containing 0.1% DMSO. The diluted samples were transferred to 384-well Echo plates, which contained prespotted calibration standards prepared by Echo transfer of 10 mM and 1 mM DMSO stock solutions, resulting in calibration points ranging from 0.05 to 4 μM. Samples and standards were subsequently analyzed by Echo-MS.

CCRF-CEM = test: In vitro cytotoxic activity; assay type: cell-based; conditions: Homo sapiens
Description: (§3) All the compounds were also tested for their in vitro cytotoxic activity on a small panel of four cancer cell lines (CCRF-CEM, HepG2, HeLa S3, HL-60) and nonmalignant human dermal fibroblasts (NHDF).

[6] = tested on: nonmalignant human dermal fibroblasts (NHDF); test: In vitro cytotoxic activity; assay type: cell-based
Description: as §3

HeLa S3 = test: In vitro cytotoxic activity; assay type: cell-based; conditions: Homo sapiens
Description: as §3

HepG2 = test: In vitro cytotoxic activity; assay type: cell-based; conditions: Homo sapiens
Description: as §3

HL-60 = test: In vitro cytotoxic activity; assay type: cell-based; conditions: Homo sapiens
Description: as §3

[7] = target: T1, recombinant human CD73 (hCD73) (Homo sapiens, UniProt P21589); test: CD73 activity assay on recombinant human CD73; assay type: biochemical; conditions: ΔGexp = RT ln Ki
T1 sequence (P21589 27-574): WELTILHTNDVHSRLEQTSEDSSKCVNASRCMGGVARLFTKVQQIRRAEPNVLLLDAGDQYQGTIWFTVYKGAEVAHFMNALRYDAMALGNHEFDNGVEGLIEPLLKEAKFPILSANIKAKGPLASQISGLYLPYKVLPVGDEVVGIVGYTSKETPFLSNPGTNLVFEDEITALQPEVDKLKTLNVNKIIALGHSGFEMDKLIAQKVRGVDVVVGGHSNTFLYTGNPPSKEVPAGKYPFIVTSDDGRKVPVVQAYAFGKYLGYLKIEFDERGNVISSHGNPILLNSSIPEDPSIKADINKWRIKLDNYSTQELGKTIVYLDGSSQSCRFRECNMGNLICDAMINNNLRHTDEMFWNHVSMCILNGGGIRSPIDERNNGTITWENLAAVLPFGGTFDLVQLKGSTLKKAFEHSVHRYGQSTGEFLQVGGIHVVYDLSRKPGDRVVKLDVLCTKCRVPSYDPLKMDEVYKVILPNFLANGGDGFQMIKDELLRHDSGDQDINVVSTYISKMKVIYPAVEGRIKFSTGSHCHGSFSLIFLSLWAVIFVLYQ

[8] = Microsomal stability assay, mouse liver microsomes; assay type: in vitro ADME; conditions: for Mics (m) comp remaining 60 min: 10 μM; for microsomal CLint at 10 µM: pooled liver microsomes, pH 7.4, read-out: Mics (m) CLint
[9] = Microsomal stability assay, human liver microsomes; assay type: in vitro ADME; conditions: for Mics (hu) comp remaining 60 min: 10 μM; for microsomal CLint at 10 µM: pooled liver microsomes, pH 7.4, read-out: Mics (hu) CLint

Compound: O=P(O)(O)CP(=O)(O)OC[C@H]1O[C@@H](n2ccc3c(-c4ccco4)ncnc32)[C@H](O)[C@@H]1O [4A.1, [(5-{[4-(Furan-2-yl)-7H-pyrrolo[2,3-d]pyrimidin-7-yl]-β-D-ribofuranosyl}oxy)phosphonomethyl]phosphonic Acid]
- fraction unbound at 4 h, 100 µM [1]: 0.699
- fraction unbound at 4 h, 100 µM [2]: 0.053
- half-life at 10 µM (in vitro [3]): > 2 h
- half-life at 10 µM (in vitro [4]): > 2 h
- solubility at 2 h [5]: 25 µM (≈ 11.9 µg/mL)
- IC50 (CCRF-CEM): > 10 µM
- IC50 [6]: > 10 µM
- IC50 (HeLa S3): > 10 µM
- IC50 (HepG2): > 10 µM
- IC50 (HL-60): 3.7 µM
- dG_exp, experimental binding free energy [7]: –12.9 kcal/mol

Compound: O=P(O)(O)CP(=O)(O)OC[C@H]1O[C@@H](n2ccc3c(-c4ccoc4)ncnc32)[C@H](O)[C@@H]1O [4A.2]
- fraction unbound at 4 h, 100 µM [1]: 0.872
- fraction unbound at 4 h, 100 µM [2]: 0.162
- half-life at 10 µM (in vitro [3]): > 2 h
- half-life at 10 µM (in vitro [4]): > 2 h
- solubility at 2 h [5]: 97 µM (≈ 46.1 µg/mL)
- IC50 (CCRF-CEM): > 10 µM
- IC50 [6]: > 10 µM
- IC50 (HeLa S3): > 10 µM
- IC50 (HepG2): > 10 µM
- IC50 (HL-60): 2.8 µM
- dG_exp, experimental binding free energy [7]: –12.5 kcal/mol

Compound: O=P(O)(O)CP(=O)(O)OC[C@H]1O[C@@H](n2ccc3c(-c4cccs4)ncnc32)[C@H](O)[C@@H]1O [4A.3]
- fraction unbound at 4 h, 100 µM [1]: 0.535
- fraction unbound at 4 h, 100 µM [2]: 0.081
- half-life at 10 µM (in vitro [3]): > 2 h
- half-life at 10 µM (in vitro [4]): > 2 h
- solubility at 2 h [5]: 76 µM (≈ 37.3 µg/mL)
- IC50 (CCRF-CEM): 9.9 µM
- IC50 [6]: > 10 µM
- IC50 (HeLa S3): > 10 µM
- IC50 (HepG2): > 10 µM
- IC50 (HL-60): 4.2 µM
- dG_exp, experimental binding free energy [7]: –13.1 kcal/mol

Compound: O=P(O)(O)CP(=O)(O)OC[C@H]1O[C@@H](n2ccc3c(-c4ccccc4)ncnc32)[C@H](O)[C@@H]1O [4A.5]
- fraction unbound at 4 h, 100 µM [1]: 0.788
- fraction unbound at 4 h, 100 µM [2]: 0.095
- half-life at 10 µM (in vitro [3]): > 2 h
- half-life at 10 µM (in vitro [4]): > 2 h
- solubility at 2 h [5]: 80 µM (≈ 38.8 µg/mL)
- IC50 (CCRF-CEM): > 10 µM
- IC50 [6]: > 10 µM
- IC50 (HeLa S3): > 10 µM
- IC50 (HepG2): > 10 µM
- IC50 (HL-60): 3.7 µM
- dG_exp, experimental binding free energy [7]: –12.6 kcal/mol

Compound: O=P(O)(O)CP(=O)(O)OC[C@H]1O[C@@H](n2ccc3c(-c4cccc5c4OCCC5)ncnc32)[C@H](O)[C@@H]1O [4A.13]
- fraction unbound at 4 h, 100 µM [1]: 0.594
- fraction unbound at 4 h, 100 µM [2]: 0.108
- Mics (m) comp remaining 60 min [8]: 94%
- microsomal CLint at 10 µM [8]: 1 µL/min/mg
- half-life at 10 µM (in vitro [3]): > 2 h
- half-life at 10 µM (in vitro [4]): > 2 h
- solubility at 2 h [5]: 81 µM (≈ 43.9 µg/mL)
- Mics (hu) comp remaining 60 min [9]: 96%
- microsomal CLint at 10 µM [9]: 1 µL/min/mg
- IC50 (CCRF-CEM): > 10 µM
- IC50 [6]: > 10 µM
- IC50 (HeLa S3): > 10 µM
- IC50 (HepG2): > 10 µM
- IC50 (HL-60): > 10 µM
- dG_exp, experimental binding free energy [7]: –12.8 kcal/mol

Compound: O=P(O)(O)CP(=O)(O)OC[C@H]1O[C@@H](n2ccc3c(-c4ccc5c(c4)CCO5)ncnc32)[C@H](O)[C@@H]1O [4A.14]
- fraction unbound at 4 h, 100 µM [1]: 0.547
- fraction unbound at 4 h, 100 µM [2]: 0.062
- Mics (m) comp remaining 60 min [8]: 94%
- microsomal CLint at 10 µM [8]: 3 µL/min/mg
- half-life at 10 µM (in vitro [3]): > 2 h
- half-life at 10 µM (in vitro [4]): > 2 h
- solubility at 2 h [5]: > 100 µM
- Mics (hu) comp remaining 60 min [9]: 112%
- microsomal CLint at 10 µM [9]: < 1 µL/min/mg
- IC50 (CCRF-CEM): > 10 µM
- IC50 [6]: 5.6 µM
- IC50 (HeLa S3): > 10 µM
- IC50 (HepG2): 6.3 µM
- IC50 (HL-60): 6.6 µM
- dG_exp, experimental binding free energy [7]: –12.9 kcal/mol

Compound: O=P(O)(O)CP(=O)(O)OC[C@H]1O[C@@H](n2ccc3c(-c4cccc5ccoc45)ncnc32)[C@H](O)[C@@H]1O [4A.15]
- fraction unbound at 4 h, 100 µM [1]: 0.542
- fraction unbound at 4 h, 100 µM [2]: 0.036
- Mics (m) comp remaining 60 min [8]: 102%
- microsomal CLint at 10 µM [8]: < 1 µL/min/mg
- half-life at 10 µM (in vitro [3]): > 2 h
- half-life at 10 µM (in vitro [4]): > 2 h
- solubility at 2 h [5]: 76 µM (≈ 39.9 µg/mL)
- Mics (hu) comp remaining 60 min [9]: 118%
- microsomal CLint at 10 µM [9]: < 1 µL/min/mg
- IC50 (CCRF-CEM): > 10 µM
- IC50 [6]: 5.7 µM
- IC50 (HeLa S3): > 10 µM
- IC50 (HepG2): 8.7 µM
- IC50 (HL-60): 8.6 µM
- dG_exp, experimental binding free energy [7]: –13.4 kcal/mol
